In ChEMBL document CHEMBL1772993, “Design and synthesis of novel N-hydroxy-dihydronaphthyridinones as potent and orally bioavailable HIV-1 integrase inhibitors” (J Med Chem, 2011):

assay: Volume of distribution at steady state in dog at 1 mg/kg, iv and 4.2 mg/kg, po; format: ADME, organism-based, Canis lupus familiaris; conditions: in vivo, read-out: Vdss

| Vd [L/kg] | Structure (SMILES) |
| --- | --- |
| 6.7 | O=C1c2ncc3c(c(CN4CCCCC4)cn3Cc3ccc(F)cc3)c2CCN1O |

assay: Clearance in dog at 1 mg/kg, iv and 4.2 mg/kg, po; format: ADME, organism-based, Canis lupus familiaris; conditions: in vivo

| clearance [mL/min/kg] | Structure (SMILES) |
| --- | --- |
| 30 | O=C1c2ncc3c(c(CN4CCCCC4)cn3Cc3ccc(F)cc3)c2CCN1O |

assay: Oral bioavailability in dog at 4.2 mg/kg; format: ADME, organism-based, Canis lupus familiaris; conditions: in vivo

| bioavailability [%] | Structure (SMILES) |
| --- | --- |
| 33 | O=C1c2ncc3c(c(CN4CCCCC4)cn3Cc3ccc(F)cc3)c2CCN1O |

assay: Half life in dog at 1 mg/kg, iv and 4.2 mg/kg, po; format: ADME, organism-based, Canis lupus familiaris; conditions: in vivo

| half-life [min] | Structure (SMILES) |
| --- | --- |
| 156 | O=C1c2ncc3c(c(CN4CCCCC4)cn3Cc3ccc(F)cc3)c2CCN1O |

assay: Clearance in dog; format: ADME, organism-based, Canis lupus familiaris; conditions: in vivo

| clearance [mL/min/kg] | Structure (SMILES) |
| --- | --- |
| 15 | CN(O)C(=O)c1cc2c(CN3CCC[C@H]3C(N)=O)cn(Cc3ccc(F)cc3)c2cn1 |

assay: Octanol-buffer distribution coefficient, log D of the compound at pH 7.4; format: physicochemical; conditions: not given

| logD | Structure (SMILES) |
| --- | --- |
| 2.1 | O=C1c2ncc3c(c(CCCOC4CCOCC4)cn3Cc3ccc(F)cc3)c2CCN1O |
| 1.46 | COCCN(C)Cc1cn(Cc2ccc(F)cc2)c2cnc3c(c12)CCN(O)C3=O |
| 0.76 | CC(=O)N(C)CCCc1cn(Cc2ccc(F)cc2)c2cnc3c(c12)CCN(O)C3=O |
| 0.1 | O=C1c2ncc3c(c(CCCN4CCOCC4)cn3Cc3ccc(F)cc3)c2CCN1O |
| 2.47 | O=C1c2ncc3c(c(COCc4ccccc4F)cn3Cc3ccc(F)cc3)c2CCN1O |
| 0.67 | CN(CCO)Cc1cn(Cc2ccc(F)cc2)c2cnc3c(c12)CCN(O)C3=O |
| 1.15 | O=C1c2ncc3c(c(CN4CCCCC4)cn3Cc3ccc(F)cc3)c2CCN1O |
| 1.56 | O=C1c2ncc3c(c(COCCc4ccccn4)cn3Cc3ccc(F)cc3)c2CCN1O |
| 2.12 | CC(C)OCCOCc1cn(Cc2ccc(F)cc2)c2cnc3c(c12)CCN(O)C3=O |
| -0.74 | O=C(O)CCc1cn(Cc2ccc(F)cc2)c2cnc3c(c12)CCN(O)C3=O |
| 1.15 | N#Cc1cc(F)ccc1Cn1ccc2c3c(ncc21)C(=O)N(O)CC3 |
| 1.63 | O=C1c2ncc3c(c(S(=O)(=O)N4CCCC4)cn3Cc3ccc(F)cc3)c2CCN1O |
| 2.15 | O=C1c2ncc3c(c(COCCCc4ccccn4)cn3Cc3ccc(F)cc3)c2CCN1O |
| 1.67 | CC(C)(O)CCc1cn(Cc2ccc(F)cc2)c2cnc3c(c12)CCN(O)C3=O |
| 1.63 | O=C1c2ncc3c(c(COCc4ccccn4)cn3Cc3ccc(F)cc3)c2CCN1O |
| 1.39 | O=C1c2ncc3c(ccn3Cc3ccc(F)cc3)c2CCN1O |
| 2.02 | O=C1c2ncc3c(c(CN4CCC(F)(F)C4)cn3Cc3ccc(F)cc3)c2CCN1O |
| 1.29 | CN(C)S(=O)(=O)c1cn(Cc2ccc(F)cc2)c2cnc3c(c12)CCN(O)C3=O |
| 0.6 | O=C1c2ncc3c(ccn3Cc3ccc(F)cn3)c2CCN1O |
| 2.32 | O=C1c2ncc3c(c(CCC(F)(F)F)cn3Cc3ccc(F)cc3)c2CCN1O |
| 1.14 | COCCN(C)S(=O)(=O)c1cn(Cc2ccc(F)cc2)c2cnc3c(c12)CCN(O)C3=O |
| 2.14 | CC1CCN(S(=O)(=O)c2cn(Cc3ccc(F)cc3)c3cnc4c(c23)CCN(O)C4=O)CC1 |
| 0.18 | O=C1c2ncc3c(c(S(=O)(=O)N4CCOCC4)cn3Cc3ccc(F)cc3)c2CCN1O |
| 0.77 | O=C1c2ncc3c(ccn3Cc3ncc(F)cc3F)c2CCN1O |
| 2.04 | CN(O)C(=O)c1cc2ccn(Cc3ccc(F)cc3)c2cn1 |
| 1.7 | N#Cc1c(Cn2ccc3c4c(ncc32)C(=O)N(O)CC4)ccc(F)c1Cl |
| 1.83 | O=C1c2ncc3c(c(COCC4CCOCC4)cn3Cc3ccc(F)cc3)c2CCN1O |
| 1.7 | CN(O)C(=O)c1cc2c(CN3CCC[C@H]3C(N)=O)cn(Cc3ccc(F)cc3)c2cn1 |
| 1.52 | CN(Cc1cn(Cc2ccc(F)cc2)c2cnc3c(c12)CCN(O)C3=O)CC1CC1 |
| 0.89 | CN(C)Cc1cn(Cc2ccc(F)cc2)c2cnc3c(c12)CCN(O)C3=O |
